From US20150065440A1 (Progen Pharmaceuticals Limited, priority 2007, published 2015) come the findings set out here.

Where two headings read alike, the source gives them in different places.

Test [1] deals with HUVEC proliferation induced by FGF-1. The test can be described thus: Growth factor induced endothelial cell proliferation assay, FGF-1. Conditions: 72 h, read-out: FGF-1 (IC50) inhibition of HUVEC proliferation. The class given is cell-based, human. The method, boiled down:
(§1)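 HUVECs at 1-3×10^3 per well in EGM with 2% FBS and gentamicin (complete EGM for VEGF groups in a later study) were treated with growth factor plus compound. After 70 h, proliferation was read by absorbance at 490 nm following 2 h with CellTitre 96 Aqueous One reagent.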

Test [2] deals with HUVEC proliferation induced by FGF-2. The experiment in a line: Growth factor induced endothelial cell proliferation assay, FGF-2. Conditions: 72 h, read-out: FGF-2 (IC50) inhibition of HUVEC proliferation. The class given is cell-based, human. Summed up: as §1
Test [3] relates to HUVEC proliferation induced by VEGF. The test can be described thus: Growth factor induced endothelial cell proliferation assay, VEGF. The class given is cell-based, human. Conditions: 72 h, read-out: VEGF (IC50) inhibition of HUVEC proliferation. Summed up:
as §1

Test [4] concerns HUVECs. The experiment in a line: Matrigel microtubule formation assay. Type of test: cell-based, human. Conditions: for Microtubule Formation % inhibition at 10 μM: relative to controls. How it is done:
Medium for the proliferation studies was prepared using EGM with 2% FBS and gentamicin only. In a later study, complete EGM was used for the VEGF groups in an attempt to enhance the proliferative index of VEGF-stimulated groups. For the tube formation assay, complete medium was used with only heparin omitted. Compounds under investigation were weighed out from powder stocks and diluted in PBS to 10 mM stock solutions and stored at −80° C. For experiments, compounds were subsequently diluted in EBM-2 medium (supplemented with 2% FBS and gentamicin) to various working concentration as required.
The tube formation assay was performed essentially as described by Malinda et al., with modifications.^41 HUVECs in the fourth or fifth passage at 70-80% confluence were harvested and resuspended in Lonza endothelial growth medium (EGM2) containing all supplements as directed by manufacturer, except heparin, at a cell density of 4×10^5 cells per mL. For each set of triplicate wells, 200 μL of cells (4×10^5/mL) were treated with an equal volume of compound to obtain final concentrations of 10, 50 or 100 μM (thus ensuring 1×300 μL are available for each condition). A 100 μL aliquot of cells was then plated onto 96-well plates pre-coated with growth factor reduced Matrigel™ (50 μL for 30 min followed by a further 30 μL for 1 h) and incubated for 18-22 h. Tube formation was examined by phase-contrast microscopy and images were collected using an Olympus C5050 digital camera. Tube formation inhibition was quantitated manually from images by recording the total number of nodes connecting 3 or more tubules. Untreated HUVECs were used as a control for normal cell growth and tube formation in Matrigel.

Test [5] concerns HSV-1. The experiment in a line: Viral plaque number-reduction assay, HSV-1. Conditions: plaques in GMK AH1 cells (Table 9, footnote b). How it is done:
African green monkey kidney (GMK AH1) cells^46 were cultured in Eagle's minimum essential medium (EMEM) supplemented with 2% calf serum, 0.05% Primaton RL substance (Kraft Inc., Norwich, USA) and antibiotics. Human epidermoid carcinoma (HEp-2) cells were cultured in Dulbecco's modified EMEM (DMEM) supplemented with 10% fetal calf serum and antibiotics. […] The RSV strain A-2^50 was used. The RSV stock was prepared as described by Hallak et al.^51 and stored at −70° C. in the presence of 40% sucrose^52.
The viral infectivity (the plaque number-reduction) assay and the plaque size-reduction assay were carried out as described previously^17. […] Subsequently, the cells were washed with 2 mL of EMEM and overlaid with 1% methylcellulose solution in EMEM. The plaques were visualized by staining with crystal violet solution after 2 (HSV-2) or 3 (HSV-1) days of incubation at 37° C. […] When the compounds were screened for anti-HSV or anti-RSV activity, mixtures of 200 PFU of the virus and the test compound (100 μg/mL) in serum-free EMEM were incubated for 10 min at room temperature before addition to cells and during the entire period of viral infection of cells and the development of viral plaques. In the plaque size-reduction assay, the compounds were added to cells (in methylcellulose overlay medium) after 2 h period of virus infection of cells in the absence of the inhibitor. After 2-3 days of incubation at 37° C., the viral plaques were visualized by staining the cells with 1% solution of crystal violet. For each compound tested, the images of twenty neighboring plaques were captured using a Leica DC300 digital camera attached to a Leitz-Wetzlar Diavert microscope. The area of each plaque was determined using IM500 image software (Leica). Similar protocols were used for RSV, except that the assays were performed in HEp-2 cells and DMEM supplemented with 2% heat-inactivated fetal calf serum was used instead of EMEM.

One may read the inhibition as the percentage by which the read-out fell short of the control. As to `CC(C)CCC[C@@H](C)[C@H]1CC[C@H]2[C@@H]3CC[C@H]4C[C@@H](O[C@H]5O[C@H](COS(=O)(=O)O)[C@@H](OS(=O)(=O)O)[C@H](OS(=O)(=O)O)[C@@H]5O[C@H]5O[C@H](COS(=O)(=O)O)[C@@H](OS(=O)(=O)O)[C@H](OS(=O)(=O)O)[C@@H]5OS(=O)(=O)O)CC[C@]4(C)[C@H]3CC[C@]12C` [Compound 33, 3β-Cholestanyl 2,3,4,6-tetra-O-sodium sulfonato-α-D-mannopyranosyl-(1→2)-3,4,6-tri-O-sodium sulfonato-α-D-mannopyranoside], the IC50 in test [1] (Homo sapiens, HUVEC) was over 10000 nM; in test [2] (Homo sapiens, HUVEC) it was 2220 nM; in test [3] (Homo sapiens, HUVEC) it was 1850 nM. Moreover, the inhibition at 10 µM in test [4] (Homo sapiens, HUVEC, read-out: Microtubule Formation % inhibition at 10 μM) turned out to be 14%.
In the case of `CC(C)CCC[C@@H](C)[C@H]1CC[C@H]2[C@@H]3CCC4CC(O[C@H]5O[C@H](COS(=O)(=O)[O-])[C@@H](OS(=O)(=O)[O-])[C@H](O[C@H]6O[C@H](COS(=O)(=O)[O-])[C@@H](OS(=O)(=O)[O-])[C@H](O[C@H]7O[C@H](COS(=O)(=O)[O-])[C@@H](OS(=O)(=O)[O-])[C@H](OS(=O)(=O)[O-])[C@@H]7OS(=O)(=O)[O-])[C@@H]6OS(=O)(=O)[O-])[C@@H]5OS(=O)(=O)[O-])CC[C@]4(C)[C@H]3CC[C@]12C.[Na+].[Na+].[Na+].[Na+].[Na+].[Na+].[Na+].[Na+].[Na+].[Na+]` (stereo partly drawn) [Compound 56, 3′-Cholestanyl 2,3,4,6-tetra-O-sodium sulfonato-α-D-mannopyranosyl-(1→3)-2,4,6-tri-O-sodium sulfonato-α-D-mannopyranosyl-(1→3)-3,4,6-tri-O-sodium sulfonato-α-D-mannopyranoside], the IC50 amounted to 2520 nM in test [1], 1800 nM in test [2] and 1720 nM in test [3]. The “Microtubule Formation % inhibition at 10 μM” value in test [4] is given as 67%.
`CC(C)CCC[C@@H](C)[C@H]1CC[C@H]2[C@@H]3CCC4C[C@@H](OCc5cn(CCCO[C@H]6O[C@H](COS(=O)(=O)[O-])[C@@H](OS(=O)(=O)[O-])[C@H](O[C@H]7O[C@H](COS(=O)(=O)[O-])[C@@H](OS(=O)(=O)[O-])[C@H](O[C@H]8O[C@H](COS(=O)(=O)[O-])[C@@H](OS(=O)(=O)[O-])[C@H](OS(=O)(=O)[O-])[C@@H]8OS(=O)(=O)[O-])[C@@H]7OS(=O)(=O)[O-])[C@@H]6OS(=O)(=O)[O-])nn5)CC[C@]4(C)[C@H]3CC[C@]12C.[Na+].[Na+].[Na+].[Na+].[Na+].[Na+].[Na+].[Na+].[Na+].[Na+]` (stereo partly drawn) [Compound 60, 3-{4-(Cholestan-3β-yl-oxymethyl)-[1,2,3]triazol-1-yl}propyl 2,3,4,6-tetra-O-sodium sulfonato-α-D-mannopyranosyl-(1→3)-2,4,6-tri-O-sodium sulfonato-α-D-mannopyranosyl-(1→3)-3,4,6-tri-O-sodium sulfonato-α-D-mannopyranoside]: the results for the IC50 in test [1], in test [2] and in test [3] were 2610 nM, 1220 nM and 1440 nM, respectively. The “Microtubule Formation % inhibition at 10 μM” value in test [4] amounted to 49%.
As to `CC(C)CCC[C@@H](C)[C@H]1CC[C@H]2[C@@H]3CCC4CC(OCc5cn([C@@H]6O[C@H](COS(=O)(=O)[O-])[C@@H](O[C@H]7O[C@H](COS(=O)(=O)[O-])[C@@H](O[C@H]8O[C@H](COS(=O)(=O)[O-])[C@@H](OS(=O)(=O)[O-])[C@H](OS(=O)(=O)[O-])[C@H]8OS(=O)(=O)[O-])[C@H](OS(=O)(=O)[O-])[C@H]7OS(=O)(=O)[O-])[C@H](OS(=O)(=O)[O-])[C@H]6OS(=O)(=O)[O-])nn5)CC[C@]4(C)[C@H]3CC[C@]12C.[Na+].[Na+].[Na+].[Na+].[Na+].[Na+].[Na+].[Na+].[Na+].[Na+]` (stereo partly drawn) [Compound 70, 4-(Cholestan-3-yl-oxymethyl)[1,2,3]triazol-1-yl 2,3,4,6-tetra-O-sodium sulfonato-α-D-glucopyranosyl-(1→4)-2,3,6-tri-O-sodium sulfonato-α-D-glucopyranosyl-(1→4)-1-deoxy-2,3,6-tri-O-sodium sulfonato-β-D-glucopyranoside], the IC50 in test [1] was determined as 2300 nM; in test [2], 640 nM; in test [3] it was 2200 nM. For the same compound, the “Microtubule Formation % inhibition at 10 μM” value in test [4] was 52%. Further, in test [5], the “HSV-1 KOS321 strain IC50” value was determined as 0.25 µg/mL.
For `CCCCCCCCCCCCCCCCCC(=O)NCCCO[C@@H]1O[C@H](COS(=O)(=O)[O-])[C@@H](O[C@H]2O[C@H](COS(=O)(=O)[O-])[C@@H](O[C@H]3O[C@H](COS(=O)(=O)[O-])[C@@H](O[C@H]4O[C@H](COS(=O)(=O)[O-])[C@@H](OS(=O)(=O)[O-])[C@H](OS(=O)(=O)[O-])[C@H]4OS(=O)(=O)[O-])[C@H](OS(=O)(=O)[O-])[C@H]3OS(=O)(=O)[O-])[C@H](OS(=O)(=O)[O-])[C@H]2OS(=O)(=O)[O-])[C@H](OS(=O)(=O)[O-])[C@H]1OS(=O)(=O)[O-].[Na+].[Na+].[Na+].[Na+].[Na+].[Na+].[Na+].[Na+].[Na+].[Na+].[Na+].[Na+].[Na+]` [Compound 128, 3-Stearamidopropyl 2,3,4,6-tetra-O-sulfo-α-D-glucopyranosyl-(1→4)-2,3,6-tri-O-sulfo-α-D-glucopyranosyl-(1→4)-2,3,6-tri-O-sulfo-α-D-glucopyranosyl-(1→4)-2,3,6-tri-O-sulfo-β-D-glucopyranoside, tridecasodium salt], in test [2] (Homo sapiens, HUVEC), the IC50 came to 770 nM.
